{"source": "patent US20170246228A1", "about": "“METHOD FOR SUPPRESSING PROLIFERATION AND/OR INDUCING APOPTOSIS OF CANCER CELLS” (Maruhachi Muramatsu, Inc., priority 2016, published 2017)"}
{"tested_on": "MDA-MB-231 cells", "test": "Cell proliferation of MDA-MB-231 cells with inhibitors that induce cell-cycle arrest, 3 days of culture", "type": "cell-based, human", "conditions": "absence of S. horneri active component, butyrate 10 and 100 μM, roscovitine 10 and 100 nM, sulforaphane 1 and 10 nM, FIG. 2(A)", "experimental": "Cells were detached from each culture dishes using 0.2% trpysin plus 0.02% EDTA in Ca^2+/Mg^2+-free PBS for 2 min at 37° C., cells were collected after centrifugation. Cells were resuspended on PBS solution and stained with eosin. Cell numbers were counted under a microscope using a Hemocytometer plate. For each dish, we took the average of two countings.\nData are expressed as the mean±standard deviation (SD). Statistical significance was determined using GraphPad InStat version 3 for Windows XP (GraphPad Software Inc. La Jolla, Calif.). Multiple comparisons were performed by one-way analysis of variance (ANOVA) with Tukey-Kramer multiple comparisons post-test for parametric data as indicated. Data indicated P<0.05 was considered statistically significant.\nBreast cancer MDA-MB-231 cells (1×10^5/ml per well) were cultured in a 24-well plate in DMEM containing 10% FBS and 1% P/S for 3 days in the presence or absence of S. horneri active component (50 μg/ml) with or without sodium butyrate (10 and 100 μM), roscovitine (10 and 100 nM) or sulforaphane (1 and 10 nM). Upon completion of culture, the cells were detached from wells, and the number of cells was counted and statistical processing was performed in accordance with the methods described in 2-1-2 and 2-1-3."}
{"smiles": "CCCC(=O)[O-].[Na+]", "note": "[butyrate, sodium butyrate]", "proliferation of MDA-MB-231 cells in the presence of the inhibitor alone": "suppressed"}
{"smiles": "CC[C@H](CO)Nc1nc(NCc2ccccc2)c2ncn(C(C)C)c2n1", "note": "[roscovitine]", "proliferation of MDA-MB-231 cells in the presence of the inhibitor alone": "suppressed"}
{"smiles": "C[S+]([O-])CCCCN=C=S", "note": "(stereo not drawn) [sulforaphane]", "proliferation of MDA-MB-231 cells in the presence of the inhibitor alone": "suppressed"}
